Patent US8598374B2, “GPR120 receptor agonists and uses thereof” (Metabolex, Inc, priority 2008, dated 2013)

Target: T1, human GPR120 (Homo sapiens, UniProt Q5NUL3)
T1 construct: Flag (DYKDDDDK) (N); host or cells: HEK293 cells co-expressing Gqi5
T1 sequence (Q5NUL3 1-361): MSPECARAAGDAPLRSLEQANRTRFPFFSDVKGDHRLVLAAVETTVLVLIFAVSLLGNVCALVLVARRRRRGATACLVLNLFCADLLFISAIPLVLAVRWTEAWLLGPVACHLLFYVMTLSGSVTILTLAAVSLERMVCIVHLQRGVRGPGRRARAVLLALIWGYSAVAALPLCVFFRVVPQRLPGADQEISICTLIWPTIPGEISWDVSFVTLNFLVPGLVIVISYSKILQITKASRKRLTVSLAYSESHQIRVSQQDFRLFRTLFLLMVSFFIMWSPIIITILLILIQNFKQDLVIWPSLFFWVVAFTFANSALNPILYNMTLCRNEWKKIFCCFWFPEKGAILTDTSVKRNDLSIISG
Test: Intracellular Ca2+ assay (FLIPR Calcium 4, Flexstation) in human GPR120 stable cell line
Type: cell-based
Details: for concentration at which activity reached a maximum: typical value, reference compound; for % Activity (Ex. 25 Reference Compound): % activity at 2.5 μM compared to the maximal activity of the compound of Example 25 at 2.5 μM, HEK293 cells co-expressing Gqi5; for EC50: human GPR120 stably expressing cells, eight concentrations from 0.00001 to 20 μM
Description: Human GPR120 stable cell line was purchased from Multispan Inc (26219 Eden Landing Road, Hayward, Calif. 94545). This GPR120 cell line was generated in HEK293 cells co-expressing Gqi5. In this cell line, the Flag epitope tag (DYKDDDDK) was fused to the amino terminus of human GPR120 protein.
The concentration of intracellular Ca^2+ was measured as described below. Human GPR120 cells were plated in 96 well plates (Poly-D-Lysine coated black/clear Plate, Greiner Bio-One) at 70,000 cells per well and cultured overnight in conditions of 37° C. and 5% CO2. A Ca^2+ assay dye stock solution was prepared by adding 10 mL of assay buffer (HBSS/20 mM HEPES, pH 7.4) to FLIPR Calcium 4 Assay Bulk Kit (Molecular Devices). The 10 mL of Ca^2+ assay dye solution was prepared by further diluting 0.5 mL of Ca^2+ assay dye stock solution with 10 mL of assay buffer. The medium of the cells was removed and immediately 100 μL of the Ca^2+ assay dye solution was dispensed into each well followed by incubation at 37° C. and 5% CO2 for 50 minutes to incorporate the Ca^2+ dye into the cells. The cell plate was then placed in the Flexstation (Molecular Devices) for 20 minutes at 37° C. Compounds were dissolved in 100% DMSO and diluted to desired concentrations with assay buffer and placed in the Flexstation simultaneously with the cell plate for 20 minute incubation at 37° C. prior to reading. Fluorescence intensity was measured immediately following compound addition (25 μL/well) on the Flexstation at an excitation wavelength of 485 nm and an emission wavelength of 525 with 515 nm auto cutoff. The resulting increase in fluorescence intensities corresponds to increases in intracellular Ca^2+ levels.
Compounds were dissolved in 100% DMSO to a concentration of 20 mM to provide stock solutions. To determine activity against human GPR120, compounds were added with human GPR120 stably expressing cells (described above), at eight desired concentrations ranging from 0.00001 to 20 μM, in 96 well plates and fluorescence intensities were measured for 90 seconds with 2-second intervals. An EC50 value (concentration of the GPR120 agonist where 50% of the agonist's maximal activity is observed) was calculated using the changes (Max-Min) of fluorescence intensity.
To determine percent activity for a tested compound, the fluorescence intensity value obtained at a particular concentration were compared to the maximal fluorescence intensity value obtained for reference compound GW9508 (4-[[(3-phenoxyphenyl)methyl]amino]benzene propanoic acid; British Journal of Pharmacology 2006 148, 619-628) or the compound of Example 25. When GW9508 was used as the reference compound, the maximal activity of GW9508 at 6.7 μM was designated as 100% activity. When the compound of Example 25 was used as the reference compound, the maximal activity of the compound of Example 25 at 2.5 μM was designated as 100% activity. Typically, the GW9508 activity reached a maximum at a concentration of approximately 6.7 μM and typically the compound of Example 25 reached a maximum activity at approximately 2.5 μM.

| % Activity (Ex. 25 Reference Compound) | EC50 | Molecule | concentration at which activity reached a maximum |
| --- | --- | --- | --- |
|  |  | 4-[[(3-phenoxyphenyl)methyl]amino]benzene propanoic acid [GW9508, reference compound] | approximately 6.7 μM |
| 103.75% |  | CC1(C)Cc2cc(F)cc(COc3ccc(C4CC4C(=O)O)cc3)c2O1 (single isomer, unassigned) [Example 131A, 2-(4-((5-fluoro-2,2-dimethyl-2,3-dihydrobenzofuran-7-yl)methoxy)phenyl)cyclopropanecarboxylic acid] |  |
| 105.8% |  | CC1(C)Cc2cc(F)cc(COc3ccc(C4CC4C(=O)O)cc3)c2O1 (single isomer, unassigned) [Example 131B, 2-(4-((5-fluoro-2,2-dimethyl-2,3-dihydrobenzofuran-7-yl)methoxy)phenyl)cyclopropanecarboxylic acid] |  |
| 95.58% |  | CC1(C)Cc2cc(F)cc(COc3c(F)cc(CC4CC4C(=O)O)cc3F)c2O1 (single isomer, unassigned) [Example 184A, 2-(3,5-difluoro-4-((5-fluoro-2,2-dimethyl-2,3-dihydrobenzofuran-7-yl)methoxy)benzyl)cyclopropanecarboxylic acid] |  |
| 130.66% |  | CC1(C)Cc2cc(F)cc(COc3c(F)cc(CC4CC4C(=O)O)cc3F)c2O1 (single isomer, unassigned) [Example 184B, 2-(3,5-difluoro-4-((5-fluoro-2,2-dimethyl-2,3-dihydrobenzofuran-7-yl)methoxy)benzyl)cyclopropanecarboxylic acid] |  |
|  |  | CC1(C)Cc2cccc(COc3c(F)cc(CCC(=O)O)cc3F)c2O1 [Example 25, 3-(4-((2,2-dimethyl-2,3-dihydrobenzofuran-7-yl)methoxy)-3,5-difluorophenyl)propanoic acid] | approximately 2.5 μM |
|  | 1 to 10 µM | CC(Cc1ccc(OCc2ccc(F)c3c2OC(C)(C)C3)cc1)C(=O)O (stereo not shown) [Example 30, 3-(4-((4-fluoro-2,2-dimethyl-2,3-dihydrobenzofuran-7-yl)methoxy)phenyl)-2-methylpropanoic acid] |  |
|  | 1 to 10 µM | CC1(C)Cc2c(C(F)(F)F)ccc(COc3c(F)cc(C4CC4C(=O)O)cc3F)c2O1 (stereo not shown) [Example 31, 2-(4-((2,2-dimethyl-4-(trifluoromethyl)-2,3-dihydrobenzofuran-7-yl)methoxy)-3,5-difluorophenyl)cyclopropanecarboxylic acid] |  |
|  | 1 to 10 µM | CC(Cc1cc(F)c(OCc2ccc(C(F)(F)F)c3c2OC(C)(C)C3)c(F)c1)C(=O)O (stereo not shown) [Example 32, 3-(4-((2,2-dimethyl-4-(trifluoromethyl)-2,3-dihydrobenzofuran-7-yl)methoxy)-3,5-difluorophenyl)-2-methylpropanoic acid] |  |
|  | 1 to 10 µM | CC(Cc1ccc(OCc2ccc(C(F)(F)F)c3c2OC(C)(C)C3)c(F)c1)C(=O)O (stereo not shown) [Example 33, 3-(4-((2,2-dimethyl-4-(trifluoromethyl)-2,3-dihydrobenzofuran-7-yl)methoxy)-3-fluorophenyl)-2-methylpropanoic acid] |  |
| 116.46% |  | CC1(C)Cc2cc(Cl)cc(COc3c(F)cc(C4CC4CC(=O)O)cc3F)c2O1 (stereo not shown) [Example 41, 2-(2-(4-((5-chloro-2,2-dimethyl-2,3-dihydrobenzofuran-7-yl)methoxy)-3,5-difluorophenyl)cyclopropyl)acetic acid] |  |
| 140.94% |  | CC(Cc1cc(F)c(OCc2c(F)c(F)cc3c2OC(C)(C)C3)c(F)c1)C(=O)O (stereo not shown) [Example 42, 3-(4-((5,6-difluoro-2,2-dimethyl-2,3-dihydrobenzofuran-7-yl)methoxy)-3,5-difluorophenyl)-2-methylpropanoic acid] |  |
| 157.14% |  | CC(Cc1ccc(COc2cccc3c2OC(C)(C)C3)c(F)c1)C(=O)O (stereo not shown) [Example 44, 3-(4-(((2,2-dimethyl-2,3-dihydrobenzofuran-7-yl)oxy)methyl)-3-fluorophenyl)-2-methylpropanoic acid] |  |
| 79.58% |  | CC(Cc1ccc(OCc2cc(F)cc3c2OCOC3)cc1)C(=O)O (stereo not shown) [Example 45, 3-(4-((6-fluoro-4H-benzo[d][1,3]dioxin-8-yl)methoxy)phenyl)-2-methylpropanoic acid] |  |
| 113.55% | 1 to 10 µM | Cc1cc(OCc2cc(F)cc3c2OC(C)(C)C3)ccc1CCC(=O)O [Example 46, 3-(4-((5-fluoro-2,2-dimethyl-2,3-dihydrobenzofuran-7-yl)methoxy)-2-methylphenyl)propanoic acid] |  |
| 111.18% | 1 to 10 µM | CC1(C)Cc2cc(F)cc(COc3ccc(CCC(=O)O)c(Cl)c3)c2O1 [Example 47, 3-(2-chloro-4-((5-fluoro-2,2-dimethyl-2,3-dihydrobenzofuran-7-yl)methoxy)phenyl)propanoic acid] |  |
|  | 1 to 10 µM | CC1(C)Cc2cc(F)cc(COc3ccc(CCC(=O)O)c(F)c3)c2O1 [Example 48, 3-(2-fluoro-4-((5-fluoro-2,2-dimethyl-2,3-dihydrobenzofuran-7-yl)methoxy)phenyl)propanoic acid] |  |
|  | 1 to 10 µM | CC1(C)Cc2cc(F)cc(COc3cc(F)c(CCC(=O)O)c(F)c3)c2O1 [Example 49, 3-(2,6-difluoro-4-((5-fluoro-2,2-dimethyl-2,3-dihydrobenzofuran-7-yl)methoxy)phenyl)propanoic acid] |  |
| 129.78% | 1 to 10 µM | COc1cc(OCc2cc(F)cc3c2OC(C)(C)C3)ccc1CCC(=O)O [Example 50, 3-(4-((5-fluoro-2,2-dimethyl-2,3-dihydrobenzofuran-7-yl)methoxy)-2-methoxyphenyl)propanoic acid] |  |
|  | 1 to 10 µM | Cc1cc(OCc2cc(Cl)cc3c2OC(C)(C)C3)ccc1CCC(=O)O [Example 51, 3-(4-((5-chloro-2,2-dimethyl-2,3-dihydrobenzofuran-7-yl)methoxy)-2-methylphenyl)propanoic acid] |  |
|  | 1 to 10 µM | CC1(C)Cc2cc(Cl)cc(COc3ccc(CCC(=O)O)c(Cl)c3)c2O1 [Example 52, 3-(2-chloro-4-((5-chloro-2,2-dimethyl-2,3-dihydrobenzofuran-7-yl)methoxy)phenyl)-propanoic acid] |  |
| 143.19% | 1 to 10 µM | CC1(C)Cc2cc(Cl)cc(COc3ccc(CCC(=O)O)c(F)c3)c2O1 [Example 53, 3-(4-((5-chloro-2,2-dimethyl-2,3-dihydrobenzofuran-7-yl)methoxy)-2-fluorophenyl)-propanoic acid] |  |
| 138.97% | 1 to 10 µM | CC1(C)Cc2cc(Cl)cc(COc3cc(F)c(CCC(=O)O)c(F)c3)c2O1 [Example 54, 3-(4-((5-chloro-2,2-dimethyl-2,3-dihydrobenzofuran-7-yl)methoxy)-2,6-difluorophenyl)propanoic acid] |  |
|  | 1 to 10 µM | COc1cc(OCc2cc(Cl)cc3c2OC(C)(C)C3)ccc1CCC(=O)O [Example 55, 3-(4-((5-chloro-2,2-dimethyl-2,3-dihydrobenzofuran-7-yl)methoxy)-2-methoxyphenyl)propanoic acid] |  |
| 108.51% | 1 to 10 µM | COc1cc(CCC(=O)O)c(Br)cc1OCc1cc(F)cc2c1OC(C)(C)C2 [Example 56, 3-(2-bromo-4-((5-fluoro-2,2-dimethyl-2,3-dihydrobenzofuran-7-yl)methoxy)-5-methoxyphenyl)propanoic acid] |  |
